Earlier results in article PMC7898221 (Drug Design, Development and Therapy, 2021).

| Terminal t1/2 | Tmax (after dosing) | SMILES | Time to maximum plasma concentration (Tmax) (after dosing) | Fraction metabolized by CYP3A4 into LC15-0636 (CYP3A4) |
| --- | --- | --- | --- | --- |
|  |  | N[C@@H](CC(=O)N1CCc2c(nc(C(F)(F)F)nc2C(F)(F)F)C1)CN1CC(F)(F)CCC1=O [Gemigliptin] | 0.5 to 3.0 h | ~ 10% |
| 12.3 ± 5.8 h | 1.0 to 5.0 h | CC(C)c1nc(N(C)S(C)(=O)=O)nc(-c2ccc(F)cc2)c1/C=C/[C@@H](O)C[C@@H](O)CC(=O)O [Rosuvastatin] |  |  |
